Assay [1] deals with T1, Protein kinase Pfmrk (Plasmodium falciparum, UniProt P90584).
T1 sequence (P90584 whole entry): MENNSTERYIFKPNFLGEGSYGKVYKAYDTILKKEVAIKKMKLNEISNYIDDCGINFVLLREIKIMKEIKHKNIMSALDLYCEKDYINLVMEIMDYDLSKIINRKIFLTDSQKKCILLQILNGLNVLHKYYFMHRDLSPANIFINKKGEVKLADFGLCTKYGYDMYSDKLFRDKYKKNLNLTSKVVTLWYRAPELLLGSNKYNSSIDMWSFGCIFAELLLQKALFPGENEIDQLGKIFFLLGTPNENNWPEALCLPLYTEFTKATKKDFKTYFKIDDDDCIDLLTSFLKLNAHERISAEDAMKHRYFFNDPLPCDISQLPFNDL
In words: Inhibition of Plasmodium falciparum cyclin dependent protein kinase (Pfmrk).

Assay [2] addresses T1, Protein kinase Pfmrk. In words: Inhibition of Plasmodium falciparum cyclin dependent protein kinase (No inhibition).

Broadly, the IC50 is the concentration at which inhibition is half-maximal. High values mean lower potency, low ones higher potency. On Protein kinase Pfmrk [1], `Oc1c2ccccc2nc2oc3ccccc3c12` had a 50% inhibitory concentration (IC50) of under 371 µM.
At Protein kinase Pfmrk [1], `Oc1ccc2nc3oc4ccccc4c3c(O)c2c1` had an IC50 of 187 µM.
On the same count and under the same terms, the same measure for `Oc1ccc2nc(O)c3c4ccccc4oc3c2c1`: 539 µM.
Take `Oc1[nH]c2ccccc2c2nc3ccccc3c1-2`: the IC50 entry at Protein kinase Pfmrk [2] was “Not Active”.
On to `OCCOc1cccc(-c2cc3ccccc3nc2O)c1`, for which, at Protein kinase Pfmrk [1], the IC50 was determined as 18 µM.
On the same count and under the same terms, next, `O=C(O)COc1cccc(-c2cc3ccccc3nc2O)c1`: 102 µM.
As to `Oc1nc2ccccc2c2oc3ccccc3c12`, the concentration for half-maximal inhibition (IC50) entry at Protein kinase Pfmrk [2] is reported as “Not Active”.

The values above are taken from ChEMBL document CHEMBL1133834, “Design and synthesis of Pfmrk inhibitors as potential antimalarial agents” (Bioorg Med Chem Lett, 2001).
